The source of these data is US20130053385A1, “METHOD OF COMBATING AND CONTROLLING PESTS” (SYNGENTA LIMITED, priority 2009, published 2013).

Common to all, as to format: in vivo
Assay [1] relates to Plutella xylostella (Diamond Back Moth). Nature of the assay: Activity against Plutella xylostella, larvicide, feeding/residual contact activity, preventive (artificial diet MTP, Example B5). As to conditions: 120 h, read-out: activity (larval mortality, antifeedant, growth regulation). On the procedure:
Activity Against Plutella xylostella (Diamond Back Moth)
(§1) (larvicide, feeding/residual contact activity, preventive)
24-well microtiter plate (MTP) with artificial diet is treated with test solutions by pipetting. After drying, the MTP's are infested with larvae (L2)(10-15 per well). After an incubation period of 5 days, samples are checked for larval mortality, antifeedant and growth regulation.

Assay [2] relates to Tetranychus urticae (Two-Spotted Spider Mite). Nature of the assay: Activity against Tetranychus urticae, mixed population, feeding/residual contact activity, preventive (bean leaf discs, Example B4). As to conditions: foliar, 192 h, 400 ppm, sprayed bean leaf discs, 8 days, mixed-age mites, read-out: activity (egg, larval and adult mortality). From the text:
Activity Against Tetranychus urticae (Two-Spotted Spider Mite)
(§2) (mixed population, feeding/residual contact activity, preventive)
Bean leaf discs on agar in 24-well microtiter plates are sprayed with test solutions. After drying, the leaf discs are infested with mite populations of mixed ages. 8 days later, discs are checked for egg mortality, larval mortality, and adult mortality.

Assay [3] relates to Myzus persicae (Green Peach Aphid). Nature of the assay: Activity against Myzus persicae, mixed population, feeding/residual contact activity, preventive (sunflower leaf discs, Example B1). As to conditions: foliar, 144 h, 400 ppm, sprayed sunflower leaf discs, 6 days incubation, mixed-age aphids, read-out: activity (mortality). On the procedure: (§3) Activity Against Myzus persicae (Green Peach Aphid)
as §2
Sunflower leaf discs are placed on agar in a 24-well microtiter plate and sprayed with test solutions. After drying, the leaf discs are infested with an aphid population of mixed ages. After an incubation period of 6 days, samples are checked for mortality and special effects (e.g. phytotoxicity).

Assay [4] deals with Thrips tabaci (Onion Thrips). Nature of the assay: Activity against Thrips tabaci, mixed population, feeding/residual contact activity, preventive (sunflower leaf discs, Example B3). As to conditions: foliar, 144 h, sprayed sunflower leaf discs, 6 days incubation, mixed-age thrips. As for the experimental part:
Activity Against Thrips tabaci (Onion Thrips)
as §2
Sunflower leaf discs are placed on agar in a 24-well microtiter plate and sprayed with test solutions. After drying, the leaf discs are infested with a thrips population of mixed ages. After an incubation period of 6 days, samples are checked for mortality and special effects (e.g. phytotoxicity).

Assay [5] deals with Diabrotica balteata (Corn Root Worm). Briefly: Activity against Diabrotica balteata, larvicide, feeding/residual contact activity, preventive (artificial diet MTP, Example B6). As to conditions: 120 h, L2 larvae, 5 days incubation, read-out: activity (larval mortality, antifeedant, growth regulation). As for the experimental part:
Activity Against Diabrotica balteata (Corn Root Worm)
as §1
24-well microtiter plate (MTP) with artificial diet is treated with test solutions by pipetting. After drying, the MTP's are infested with larvae (L2)(6-10 per well). After an incubation period of 5 days, samples are checked for larval mortality, antifeedant and growth regulation.

Assay [6] concerns Myzus persicae (Green Peach Aphid). Nature of the assay: Activity against Myzus persicae, mixed population, feeding activity (sucrose solution through Parafilm, Example B7). As to conditions: 120 h, in sucrose solution, 5 days after infestation.
From the text: as §3
(mixed population, feeding activity)
Test compounds are applied with a pipette into 24 well plates and mixed with a sucrose solution. The plates are closed with a stretched Parafilm. A plastic stencil with 24 holes is placed onto the plate and infested pea seedlings are placed directly on the Parafilm. The infested plate is closed with a gel blotting paper and another plastic stencil, and then turned upside down. 5 days after infestation the samples are checked for mortality.

[7] abbreviates: 400 ppm, artificial diet, L2 larvae, 5 days incubation.

Like-named read-outs stand apart in the source and are kept apart here. Where only a bound is given, the exact number is not on record here.

In the case of `Cc1cc(C)c(C2=C(OC(=O)C(C)(C)C)CC(CC3CCOCC3)C2=O)c(C)c1` (stereo not drawn) [Compound P5], the mortality at 400 ppm in assay [1] (setting [7]) is more than 80%.
For the compound `Cc1cc(C)c(C2=C(OC(=O)C(C)(C)C)CC(CC3CCOC3)C2=O)c(C)c1` (stereo not drawn) [Compound P7], the mortality at 400 ppm in assay [2], in assay [3], in assay [1] (setting [7]) and in assay [4] was more than 80% in each case.
In assay [4], `Cc1cc(C)c(C2=C(OC(=O)C(C)C)CC(CC3CCOC3)C2=O)c(C)c1` (stereo not drawn) [Compound P13] gave a mortality at 400 ppm of more than 80%.
Turning to `Cc1cc(C)c(C2=C(OC(=O)C3CCCCC3)CC(CC3CCOC3)C2=O)c(C)c1` (stereo not drawn) [Compound P15], in assay [4], the mortality at 400 ppm is more than 80%.
As to `Cc1cc(C)c(C2=C(OC(=O)c3ccccc3)CC(CC3CCOC3)C2=O)c(C)c1` (stereo not drawn) [Compound P17], the mortality at 400 ppm in assay [2], in assay [3] and in assay [4] was more than 80% each time.
Turning to `COc1ccc(C(=O)OC2=C(c3c(C)cc(C)cc3C)C(=O)C(CC3CCOC3)C2)cc1` (stereo not drawn) [Compound P18], the mortality at 400 ppm in assay [2] and in assay [4] was more than 80% throughout.
On to `CCCOC(=O)OC1=C(c2c(C)cc(C)cc2C)C(=O)C(CC2CCOC2)C1` (stereo not drawn) [Compound P20], for which the mortality at 400 ppm in assay [1] (setting [7]) and in assay [4] was more than 80% in each case.
For `Cc1cc(C)c(C2=C(OC(=O)OCC(C)C)CC(CC3CCOC3)C2=O)c(C)c1` (stereo not drawn) [Compound P23], the mortality at 400 ppm in assay [2] and in assay [4] was more than 80% throughout.
The compound `Cc1cc(C)c(C2=C(OC(=O)OCC(C)(C)C)CC(CC3CCOC3)C2=O)c(C)c1` (stereo not drawn) [Compound P24] had a mortality at 400 ppm in assay [4] of more than 80%.
In turn, `Cc1cc(C)c(C2=C(OC(=O)Oc3ccccc3)CC(CC3CCOC3)C2=O)c(C)c1` (stereo not drawn) [Compound P26] came in with a mortality at 400 ppm in assay [4] of more than 80%.
Regarding `CCS(=O)(=O)OC1=C(c2c(C)cc(C)cc2C)C(=O)C(CC2CCOC2)C1` (stereo not drawn) [Compound P27], the mortality at 400 ppm in assay [4] is more than 80%.
The same measure, in the same setting: the same measure for `CCSC(=O)OC1=C(c2c(C)cc(C)cc2C)C(=O)C(CC2CCOC2)C1` (stereo not drawn) [Compound P30]: more than 80%.
As to `Cc1cc(C)c(C2=C(OC(=O)C(C)(C)C)CC(CC3CCCOC3)C2=O)c(C)c1` (stereo not drawn) [Compound P37], the mortality at 400 ppm in assay [2] and in assay [1] (setting [7]) was more than 80% in each case.
Take `Cc1cc(C)c(C2=C(OC(=O)OC(C)C)CC(CC3CCOCC3)C2=O)c(C)c1` (stereo not drawn) [Compound P43]: the mortality at 400 ppm in assay [4] was more than 80%.
In the case of `Cc1cc(C)c(C2=C(OC(=O)c3ccccc3)CC(CC3CCOCC3)C2=O)c(C)c1` (stereo not drawn) [Compound P44], the mortality at 400 ppm in assay [2], in assay [3], in assay [5], in assay [1] (setting [7]) and in assay [4] was more than 80% throughout.
As for `CON1CCC(CC2CC(OC(C)=O)=C(c3c(C)cc(C)cc3C)C2=O)CC1` (stereo not drawn) [Compound P50], the mortality at 400 ppm in assay [3] and in assay [4] was more than 80% throughout.
As for `CON1CCC(CC2CC(OC(=O)c3ccccc3)=C(c3c(C)cc(C)cc3C)C2=O)CC1` (stereo not drawn) [Compound P55], the mortality at 400 ppm in assay [2] and in assay [4] was more than 80% each time.
Regarding `CON1CCC(CC2CC(OC(=O)OC(C)C)=C(c3c(C)cc(C)cc3C)C2=O)CC1` (stereo not drawn) [Compound P56], the mortality at 400 ppm in assay [2] and in assay [4] was more than 80% in each case.
For `COc1ccc(C(=O)OC2=C(c3c(C)cc(C)cc3C)C(=O)CC2CC2CCOC2)cc1` (stereo not drawn) [Compound P71], the mortality at 400 ppm in assay [2], in assay [3] and in assay [5] was more than 80% throughout.
For the compound `Cc1cc(C)c(C2C(=O)CC(CC3CCOCC3)C2=O)c(C)c1` (stereo not drawn) [Compound T4], the mortality at 400 ppm in assay [1] (setting [7]) and in assay [4] was more than 80% in each case.
`Cc1cc(C)c(C2C(=O)CC(CC3CCOC3)C2=O)c(C)c1` (stereo not drawn) [Compound T5]: the mortality at 400 ppm in assay [3], in assay [1] (setting [7]) and in assay [4] was more than 80% each time.
In the case of `Cc1cc(C)c(C2C(=O)C/C(=C\C3CCOCC3)C2=O)c(C)c1` (stereo not drawn) [Compound T8], the mortality at 400 ppm in assay [2], in assay [3], in assay [1] (setting [7]) and in assay [4] was more than 80% in each case.
With `Cc1cc(C)c(C2C(=O)C/C(=C\C3CCCOC3)C2=O)c(C)c1` (stereo not drawn) [Compound T14], the mortality at 400 ppm in assay [2], in assay [3], in assay [1] (setting [7]) and in assay [4] was more than 80% each time. For the same compound, in assay [6], the mortality at 25 ppm is more than 80%.
As to `Cc1cc(C)c(C2C(=O)CC(CC3CCCOC3)C2=O)c(C)c1` (stereo not drawn) [Compound T16], the mortality at 400 ppm in assay [3], in assay [1] (setting [7]) and in assay [4] was more than 80% in each case.
With `Cc1cc(C)c(C2C(=O)C/C(=C\C3CCOC3)C2=O)c(C)c1` (stereo not drawn) [Compound T17], the mortality at 400 ppm in assay [2], in assay [3], in assay [5], in assay [1] (setting [7]) and in assay [4] was more than 80% each time.
With `CON1CCC(CC2CC(=O)C(c3c(C)cc(C)cc3C)C2=O)CC1` (stereo not drawn) [Compound T23], the mortality at 400 ppm in assay [3] and in assay [4] was more than 80% throughout.
Take `Cc1cc(C)c(C2C(=O)C/C(=C\C3CCN(S(C)(=O)=O)C3)C2=O)c(C)c1` (stereo not drawn) [Compound T31]: the mortality at 400 ppm in assay [2] and in assay [1] (setting [7]) was more than 80% in each case.
`CCSC(=O)N1CCC(/C=C2\CC(=O)C(c3c(C)cc(C)cc3C)C2=O)C1` (stereo not drawn) [Compound T33]: the mortality at 400 ppm in assay [1] was more than 80%.
Turning to `Cc1cc(C)c(C2C(=O)CC(CC3CCOC(C)(C)C3)C2=O)c(C)c1` (stereo not drawn) [Compound T39], the mortality at 400 ppm in assay [2] and in assay [5] was more than 80% throughout.
Take `Cc1cccc(C)c1C1C(=O)CC(CC2CCOCC2)C1=O` (stereo not drawn) [Compound T52]: the mortality at 400 ppm in assay [2], in assay [3] and in assay [4] was more than 80% throughout.
For the compound `Cc1cc(C)c(C2C(=O)C/C(=C\C3CCN(C(=O)OC(C)(C)C)CC3)C2=O)c(C)c1` (stereo not drawn) [Compound T54], the mortality at 400 ppm in assay [2] and in assay [5] was more than 80% in each case.
With `Cc1cc(-c2ccc(F)cc2)cc(C)c1C1C(=O)C/C(=C\C2CCOCC2)C1=O` (stereo not drawn) [Compound T61], the mortality at 400 ppm in assay [2] and in assay [3] was more than 80% in each case. Also, the mortality at 25 ppm in assay [6] is more than 80%.
For `Cc1cc(-c2ccc(Cl)cc2)cc(C)c1C1C(=O)C/C(=C\C2CCOCC2)C1=O` (stereo not drawn) [Compound T62], the mortality at 400 ppm in assay [2], in assay [3] and in assay [1] (setting [7]) was more than 80% in each case. In assay [6], this compound registered a mortality at 25 ppm of more than 80%.
Consider `Cc1cc(-c2ccc(F)cc2)cc(C)c1C1C(=O)CC(CC2CCOCC2)C1=O` (stereo not drawn) [Compound T63], for which the mortality at 400 ppm in assay [2] and in assay [3] was more than 80% each time. Besides, the mortality at 25 ppm in assay [6] was more than 80%.
For the compound `Cc1cc(C)c(C2C(=O)CC(CC3CCN(C(=O)c4cc(C)nn4C)CC3)C2=O)c(C)c1` (stereo not drawn) [Compound T121], the mortality at 400 ppm in assay [1] (setting [7]) is more than 80%.
As for `Cc1cc(C)c(C2C(=O)CC(CC3C[C@@H]4O[C@H]3[C@@H]3C(=O)NC(=O)[C@@H]34)C2=O)c(C)c1` (stereo partly drawn) [Compound T127], the mortality at 400 ppm in assay [1] (setting [7]) was more than 80%.
Turning to `Cc1cc(Br)cc(C)c1C1C(=O)CC(CC2CCOC2)C1=O` (stereo not drawn) [Compound T160], in assay [5], the mortality at 400 ppm was more than 80%.

By mortality is commonly meant the percentage killed.
